From patent publication US20210063414A1, “METHODS FOR PREVENTING AND/OR TREATING BONE LOSS CONDITIONS BY MODULATING IRISIN” (Dana-Farber Cancer Institute, Inc., priority 2018, published 2021)

Test system: inguinal fat
Experiment: Irisin injection in mice: Ucp1/Dio2 mRNA and Ucp1 protein in inguinal fat
Format: in vivo
Settings: mice, co-injection with irisin
Protocol: FIG. 18A-FIG. 18B show mRNA and protein levels of indicated genes. 1 mg/kg irisin was injected to 8-week old mice every other day for 6 days. mRNA levels of indicated genes in inguinal fat were analyzed by qRT-PCR. Cyclophilin was used for housekeeping gene (FIG. 18A). Inguinal fats were also lysed to detect the indicated protein level using immunoblot analysis (FIG. 18B). FIGS. 18C and 18D show mRNA and protein levels of indicated genes. Mice were treated and analyzed as (A-B) with addition of coinjection of […] control RGD peptide or cyclo RGDyK (cRGDyK). mRNA levels of indicated genes in inguinal fat were analyzed by qRT-PCR. Cyclophilin was used for house-keeping gene (FIG. 18C). Inguinal fats were also lysed to detect the indicated protein level using immunoblot analysis (FIG. 18D). […] Ucp1 mRNA level was analyzed by qRT-PCR. […]
RNA was extracted from cultured cells or frozen tissues using TRIzol® (Thermo Fischer Scientific) and purified with RNeasy® mini kit (QIAGEN 74106). […] To perform qRT-PCR analysis, normalized RNA was reverse transcribed using a high-capacity cDNA reverse-transcription kit (Applied Biosystems™). cDNA was analyzed by qRT-PCR with indicated primers. Relative mRNA levels were calculated using the comparative CT method and normalized to cyclophilin mRNA. […]

Structure (SMILES): N=C(N)NCCC[C@@H]1NC(=O)[C@H](CCCCN)NC(=O)[C@@H](Cc2ccc(O)cc2)NC(=O)[C@H](CC(=O)O)NC(=O)CNC1=O [cyclo RGDyK]
- effect on irisin induction of the protein level of Ucp1: blocked
- effect on irisin-induced gene expression of Ucp1 and Dio2: blocked
